Where two headings read alike, the source gives them in different places.
Legend:
IKKε = target: T1, IKKε (Homo sapiens, UniProt Q14164); assay: In-vitro IKKε kinase assay ([γ33]ATP filter-plate); format: biochemical
T1 construct: His-tag; made in house; host or cells: Sf9 insect cells
T1 sequence (Q14164 1-716): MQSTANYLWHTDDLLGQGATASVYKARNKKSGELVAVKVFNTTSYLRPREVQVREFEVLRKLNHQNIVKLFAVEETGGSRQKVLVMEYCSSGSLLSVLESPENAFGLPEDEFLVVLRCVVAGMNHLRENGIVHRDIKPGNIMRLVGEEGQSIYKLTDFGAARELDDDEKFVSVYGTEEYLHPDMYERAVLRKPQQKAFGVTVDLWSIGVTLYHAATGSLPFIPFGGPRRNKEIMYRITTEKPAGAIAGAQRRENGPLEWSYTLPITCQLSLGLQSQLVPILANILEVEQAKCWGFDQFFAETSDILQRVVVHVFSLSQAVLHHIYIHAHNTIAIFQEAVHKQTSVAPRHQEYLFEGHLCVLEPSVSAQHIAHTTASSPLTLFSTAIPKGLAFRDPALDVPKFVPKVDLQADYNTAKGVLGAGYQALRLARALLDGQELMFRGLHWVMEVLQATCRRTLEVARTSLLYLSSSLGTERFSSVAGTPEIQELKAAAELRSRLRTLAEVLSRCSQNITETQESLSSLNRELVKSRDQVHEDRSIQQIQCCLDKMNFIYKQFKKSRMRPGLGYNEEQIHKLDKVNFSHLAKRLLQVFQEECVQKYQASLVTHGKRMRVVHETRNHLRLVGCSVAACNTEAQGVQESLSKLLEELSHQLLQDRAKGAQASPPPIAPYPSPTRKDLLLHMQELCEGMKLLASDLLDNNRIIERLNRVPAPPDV
Summary of the method: (§1)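 Phosphorylation of casein or myelin basic protein was counted by P-81 filter capture after 30-45 min reactions stopped with phosphoric acid, with counts normalized to DMSO after background subtraction. ATP was twice Km: 60 μM for TBK1 and 32 μM for IKKε, plus [γ33]ATP. Sf9-expressed His-tag enzymes were used at normal/sensitized levels of 0.1/0.02 μg/ml (TBK1) and 0.1/0.015 μg/ml (IKKε).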

TBK1 = target: T2, TBK1 (Homo sapiens, UniProt Q9UHD2); assay: In-vitro TBK1 kinase assay ([γ33]ATP filter-plate); format: biochemical
T2 construct: His-tag; made in house; host or cells: Sf9 insect cells
T2 sequence (Q9UHD2 1-729): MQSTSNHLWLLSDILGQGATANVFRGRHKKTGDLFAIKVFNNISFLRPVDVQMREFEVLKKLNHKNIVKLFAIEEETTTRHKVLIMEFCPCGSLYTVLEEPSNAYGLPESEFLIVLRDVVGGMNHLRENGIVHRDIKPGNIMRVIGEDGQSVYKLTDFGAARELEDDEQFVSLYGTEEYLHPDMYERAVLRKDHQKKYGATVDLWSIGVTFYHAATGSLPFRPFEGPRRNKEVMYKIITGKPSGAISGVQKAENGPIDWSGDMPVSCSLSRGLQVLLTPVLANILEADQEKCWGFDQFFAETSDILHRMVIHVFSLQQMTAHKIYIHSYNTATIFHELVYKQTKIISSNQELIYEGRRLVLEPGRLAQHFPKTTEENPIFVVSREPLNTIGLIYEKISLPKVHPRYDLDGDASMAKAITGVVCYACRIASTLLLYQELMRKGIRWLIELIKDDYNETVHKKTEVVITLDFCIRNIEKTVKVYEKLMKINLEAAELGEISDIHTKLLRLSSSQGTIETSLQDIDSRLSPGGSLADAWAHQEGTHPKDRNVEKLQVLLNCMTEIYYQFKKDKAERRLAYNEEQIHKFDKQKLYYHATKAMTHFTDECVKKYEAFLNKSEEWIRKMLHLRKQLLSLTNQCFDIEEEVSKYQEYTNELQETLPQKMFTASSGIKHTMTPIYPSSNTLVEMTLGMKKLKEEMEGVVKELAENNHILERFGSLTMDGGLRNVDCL
Summary of the method: as §1

[1] = system: IKKε-mediated phosphorylation of IRF3; assay: In-situ phosphorylation of IRF3 (pIRF3 Ser396 ELISA) in HEK293T cells cotransfected with IRF3 and IKKε; format: cell-based; conditions: Homo sapiens, HEK-293T
Summary of the method: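 For the IRF3 ELISA, HEK293T cells cotransfected with IRF3 and IKKε were replated at 20,000/well and treated 20 h. Phospho-Ser396 IRF3 was measured by ELISA and normalised to DMSO, with viability checked by CellTiter-Glo. For IRF7, cells transfected with IRF7 and TBK1 were treated overnight, and pSer477/Ser479 IRF7 was detected by Western blot.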

[2] = text bins, read-out: IC50 for inhibition of the kinase activity of IKKε
[3] = text bins, read-out: IC50 for inhibition of the kinase activity of TBK1
[4] = HEK293T cells in culture, Table 3, read-out: pIRF3 ELISA IC50
[5] = HEK293T cells, 20 hours, text bins, read-out: IC50 for inhibition of the in-situ IKKε-mediated phosphorylation of IRF3

| IC50 (IKKε; Table 3, read-out: IKKε IC50) | IC50 (IKKε; [2]) | IC50 (TBK1; Table 3, read-out: TBK1 IC50) | IC50 (TBK1; [3]) | IC50 [1, 4] | IC50 [1, 5] | SMILES |
| --- | --- | --- | --- | --- | --- | --- |
| – | < 5 nM | – | < 10 nM | – | < 100 nM | COc1cc(Nc2nccc(-c3ccc(OC4CCOCC4)c(C#N)c3)n2)ccc1S(=O)(=O)N1CCC(N(C)C)C1 (stereo not drawn) [compound 400, 5-{2-[(4-{[3-(dimethylamino)pyrrolidin-1-yl]sulfonyl}-3-methoxyphenyl)amino]pyrimidin-4-yl}-2-(tetrahydro-2H-pyran-4-yloxy)benzonitrile] |
| – | < 5 nM | – | < 10 nM | – | < 100 nM | CN(C)S(=O)(=O)Cc1ccc(Nc2nccc(-c3ccc(OC4CCOCC4)c(C#N)c3)n2)cc1 [compound 401, 1-[4-({4-[3-Cyano-4-(tetrahydro-2H-pyran-4-yloxy)phenyl]pyrimidin-2-yl}amino)phenyl]-N,N-dimethylmethane-sulfonamide] |
| – | < 5 nM | – | < 10 nM | – | < 100 nM | N#Cc1cc(-c2ccnc(Nc3ccc(CS(=O)(=O)NCCO)cc3)n2)ccc1OC1CCOCC1 [compound 402, 1-[4-({4-[3-Cyano-4-(tetrahydro-2H-pyran-4-yloxy)phenyl]pyrimidin-2-yl}amino)phenyl]-N-(2-hydroxyethyl) methanesulfonamide] |
| – | < 5 nM | – | < 10 nM | – | < 100 nM | N#Cc1cc(-c2ccnc(Nc3ccc(CS(=O)(=O)N4CCOCC4)cc3)n2)ccc1OC1CCOCC1 [compound 404, 5-[2-({4-[(Morpholin-4-ylsulfonyl)methyl]phenyl}amino)pyrimidin-4-yl]-2-(tetrahydro-2H-pyran-4-yloxy)benzonitrile] |
| – | < 5 nM | – | < 10 nM | – | < 100 nM | N#Cc1cc(-c2ccnc(Nc3ccc(CS(=O)(=O)NCCCN4CCOCC4)cc3)n2)ccc1OC1CCOCC1 [compound 405, 1-[4-({4-[3-Cyano-4-(tetrahydro-2H-pyran-4-yloxy)phenyl]pyrimidin-2-yl}amino)phenyl]-N-[3-(morpholin-4-yl)propyl] methanesulfonamide] |
| – | < 5 nM | – | < 10 nM | – | < 100 nM | N#Cc1cc(-c2ccnc(Nc3ccc(CS(=O)(=O)N4CCN(CCO)CC4)cc3)n2)ccc1OC1CCOCC1 [compound 406, 5-(2-{[4-({[4-(2-Hydroxyethyl)piperazin-1-yl]sulfonyl}methyl)phenyl]amino}pyrimidin-4-yl)-2-(tetrahydro-2H-pyran-4-yloxy)benzonitrile] |
| – | < 5 nM | – | < 10 nM | – | < 100 nM | CNS(=O)(=O)Cc1ccc(Nc2nccc(-c3ccc(OC4CCOCC4)c(C#N)c3)n2)cc1 [compound 413, 1-[4-({4-[3-cyano-4-(tetrahydro-2H-pyran-4-yloxy)phenyl]pyrimidin-2-yl}amino)phenyl]-N-methylmethane-sulfonamide] |
| – | 5 to 50 nM | – | 10 to 100 nM | – | 100 to 250 nM | CNS(=O)(=O)Cc1ccc(Nc2nccc(-c3ccc(NC(=O)C(C)C)c(C#N)c3)n2)cc1 [compound 414, N-{2-cyano-4-[2-({4-[(methylsulfamoyl)methyl]phenyl}amino)pyrimidin-4-yl]phenyl}-2-methylpropanamide] |
| – | < 5 nM | – | < 10 nM | – | < 100 nM | CC1CC1C(=O)Nc1ccc(-c2ccnc(Nc3ccc(N4CCOCC4)cc3)n2)cc1C#N (stereo not drawn) [compound 415, N-[2-cyano-4-(2-{[4-(morpholin-4-yl)phenyl]amino}pyrimidin-4-yl)phenyl]-2-methylcyclopropane-carboxamide] |
| – | 5 to 50 nM | – | < 10 nM | – | < 100 nM | COc1cc(Nc2nccc(-c3ccc(NC(=O)C(C)C)c(C#N)c3)n2)ccc1OCCCN1CCOCC1 [compound 434, N-{2-cyano-4-[2-({3-methoxy-4-[3-(morpholin-4-yl)propoxy]phenyl}amino)pyrimidin-4-yl]phenyl}-2-methylpropanamide] |
| – | < 5 nM | – | < 10 nM | – | < 100 nM | COc1cc(-c2ccnc(Nc3ccc(N4CCOCC4)cc3)n2)cc(C#N)c1OC1CCN(C(=O)[C@@H](C)O)CC1 [compound 436, 2-({1-[(2R)-2-Hydroxypropanoyl]piperidin-4-yl}oxy)-3-methoxy-5-(2-{[4-(morpholin-4-yl)phenyl]amino}pyrimidin-4-yl)benzonitrile] |

Further lines, the compound ahead of its results:

| SMILES | IC50 (IKKε; Table 3, read-out: IKKε IC50) | IC50 (IKKε; [2]) | IC50 (TBK1; Table 3, read-out: TBK1 IC50) | IC50 (TBK1; [3]) | IC50 [1, 4] | IC50 [1, 5] |
| --- | --- | --- | --- | --- | --- | --- |
| COc1cc(Nc2nccc(-c3ccc(OC4CCOCC4)c(C#N)c3)n2)ccc1C(=O)NC1CCN(C)CC1 [compound 381, 4-({4-[3-cyano-4-(tetrahydro-2H-pyran-4-yloxy)phenyl]pyrimidin-2-yl}amino)-2-methoxy-N-(1-methylpiperidin-4-yl)benzamide] | 0.6 nM | < 5 nM | 0.4 nM | < 10 nM | 349 nM | 250 to 500 nM |
| COc1cc(Nc2nccc(-c3ccc(OC4CCOCC4)c(C#N)c3)n2)ccc1C(=O)N(C)C1CCN(C)C1 (stereo not drawn) [compound 385, 4-({4-[3-cyano-4-(tetrahydro-2H-pyran-4-yloxy)phenyl]pyrimidin-2-yl}amino)-2-methoxy-N-methyl-N-(1-methylpyrrolidin-3-yl)benzamide] | – | < 5 nM | – | < 10 nM | – | < 100 nM |
| COc1cc(Nc2nccc(-c3ccc(OC4CCOCC4)c(C#N)c3)n2)ccc1S(=O)(=O)N1CCCN(C)CC1 [compound 392, 5-[2-({3-Methoxy-4-[(4-methyl-1,4-diazepan-1-yl)sulfonyl]phenyl}amino)pyrimidin-4-yl]-2-(tetrahydro-2H-pyran-4-yloxy)benzonitrile] | 0.2 nM | < 5 nM | 0.2 nM | < 10 nM | 12.2 nM | < 100 nM |
| N#Cc1cc(-c2ccnc(Nc3cccc(N)c3)n2)ccc1OC1CCOCC1 [compound 393, 5-{2-[(3-Aminophenyl)amino]pyrimidin-4-yl}-2-(tetrahydro-2H-pyran-4-yloxy)benzonitrile] | – | < 5 nM | – | < 10 nM | – | < 100 nM |
| N#Cc1cc(-c2ccnc(Nc3cccc(CO)c3)n2)ccc1OC1CCOCC1 [compound 395, 5-(2-{[3-(hydroxymethyl)phenyl]amino}pyrimidin-4-yl)-2-(tetrahydro-2H-pyran-4-yloxy)benzonitrile] | – | < 5 nM | – | < 10 nM | – | < 100 nM |
| CC(C)N1CCN(C(=O)Cc2cccc(Nc3nccc(-c4ccc(OC5CCOCC5)c(C#N)c4)n3)c2)CC1 [compound 408, 5-{2-[(3-{2-Oxo-2-[4-(propan-2-yl)piperazin-1-yl]ethyl}phenyl)amino]pyrimidin-4-yl}-2-(tetrahydro-2H-pyran-4-yloxy)benzonitrile] | – | 5 to 50 nM | – | < 10 nM | – | < 100 nM |
| CC(C)C(=O)Nc1ccc(-c2ccnc(Nc3ccc(CC(=O)N4CCN(C(C)C)CC4)cc3)n2)cc1C#N [compound 418, N-(2-cyano-4-{2-[(4-{2-oxo-2-[4-(propan-2-yl)piperazin-1-yl]ethyl}phenyl)amino]pyrimidin-4-yl}phenyl)-2-methylpropanamide] | – | 5 to 50 nM | – | < 10 nM | – | < 100 nM |

— US20150352108A1, “AMINO-PYRIMIDINE COMPOUNDS AS INHIBITORS OF TBK1 AND/OR IKK EPSILON” (Alzheimer's Institute of America, priority 2009, published 2015)
